In the series the test system is GH3-TRE-Luc cell line. The settings on record: read-out: AC50 (uM) modified / 1000, viability, 1 nM T3 present, 24 h.

SMILES strings stand for the structures. Counter-ions that a name gives are not always drawn. Like-named read-outs stand apart in the source and are kept apart here.

Regarding `O=C1C2CC=CCC2C(=O)N1SC(Cl)(Cl)Cl` (centres unmarked) [Captan], the CC50 (Tox21_110001=Tox21_111065) amounted to 4.99 µM, the CC50 (Tox21_110001=Tox21_201276) came out at 76 µM and the CC50 (Tox21_110001=Tox21_300772) is 2.54 µM.

As for `NC(N)=O` [Carbamide peroxide], the CC50 (Tox21_110001=Tox21_302451) worked out at 69 µM.

For the compound `COC(=O)Nc1nc2ccccc2[nH]1` [Carbendazim], the CC50 (Tox21_110001=Tox21_300478) is 11.4 µM.

On to `Cc1ccc(-c2cc(C(F)(F)F)nn2-c2ccc(S(N)(=O)=O)cc2)cc1` [Celecoxib], for which the CC50 runs as follows: (Tox21_110001=Tox21_111135) 21.2 µM; (Tox21_110001=Tox21_201964) 46.6 µM; (Tox21_110001=Tox21_300599) 62.4 µM.

As for `[H]/N=C(\N/C(=N/[H])NCCCCCCNC(=N)NC(=N)Nc1ccc(Cl)cc1)Nc1ccc(Cl)cc1` [Chlorhexidine diacetate], the CC50 (Tox21_110001=Tox21_302363) came out at 5.83 µM.

Take `[H]/N=C(\N/C(=N/[H])NCCCCCCNC(=N)NC(=N)Nc1ccc(Cl)cc1)Nc1ccc(Cl)cc1` [Chlorhexidine dihydrochloride]: where the note is “Tox21_110001=Tox21_302689”, the CC50 came out at 5.24 µM.

With `[H]/N=C(\N/C(=N/[H])NCCCCCCNC(=N)NC(=N)Nc1ccc(Cl)cc1)Nc1ccc(Cl)cc1` [Chlorhexidine], the CC50 came to 12.4 µM (Tox21_110001=Tox21_110325), 7.06 µM (Tox21_110001=Tox21_201404) and 6.48 µM (Tox21_110001=Tox21_303445).

On to `CCN(CC)CCCC(C)Nc1ccnc2cc(Cl)ccc12` (centres unmarked) [Chloroquine bis(phosphate)], for which, for the setting “Tox21_110001=Tox21_110115”, the CC50 stood at 19.6 µM.

`N#Cc1c(Cl)c(Cl)c(Cl)c(C#N)c1Cl` [Chlorothalonil]: the CC50 by setting is: (Tox21_110001=Tox21_201687) 0.523 µM; (Tox21_110001=Tox21_300862) 0.188 µM.

Take `COc1ccc(C(Cl)=C(c2ccc(OC)cc2)c2ccc(OC)cc2)cc1` [Chlorotrianisene]: the CC50 (Tox21_110001=Tox21_202361) stood at 13.6 µM.

Regarding `CN(C)CCCN1c2ccccc2Sc2ccc(Cl)cc21` [Chlorpromazine], the CC50 (Tox21_110001=Tox21_110120) turned out to be 8.03 µM.

For the compound `Nc1nc(Cl)nc2c1ncn2[C@H]1C[C@H](O)[C@@H](CO)O1` [Cladribine], the CC50 came out at 0.386 µM (Tox21_110001=Tox21_110834) and 0.166 µM (Tox21_110001=Tox21_300596).

For `CN(C)CCCN1c2ccccc2CCc2ccc(Cl)cc21` [Clomipramine], under “Tox21_110001=Tox21_110117”, the CC50 turned out to be 8.96 µM.

`COc1cc(/C=C/C(=O)CC(=O)/C=C/c2ccc(O)c(OC)c2)ccc1O` [Curcumin]: the CC50 (Tox21_110001=Tox21_110803) turned out to be 22.1 µM and the CC50 (Tox21_110001=Tox21_201116) is 26.5 µM.

On to `C[C@@H]1C[C@@H]([C@H](O)CC2CC(=O)NC(=O)C2)C(=O)[C@@H](C)C1` [Cycloheximide], for which the CC50 runs as follows: (Tox21_110001=Tox21_113580) 0.256 µM; (Tox21_110001=Tox21_201158) 0.0922 µM; (Tox21_110001=Tox21_303652) 1.49 µM.

Consider `Nc1ccn([C@@H]2O[C@H](CO)[C@@H](O)[C@@H]2O)c(=O)n1` [Cytarabine hydrochloride], for which the CC50 (Tox21_110001=Tox21_300488) was determined as 0.11 µM.

In the case of `Nc1ccn([C@@H]2O[C@H](CO)[C@@H](O)[C@@H]2O)c(=O)n1` [Cytarabine], the CC50 is 0.708 µM (Tox21_110001=Tox21_111203) and 0.237 µM (Tox21_110001=Tox21_301971).

As to `O=C1CN(/N=C/c2ccc(-c3ccc([N+](=O)[O-])cc3)o2)C(O)=N1` [Dantrolene sodium], the CC50 was found to be 11.2 µM (Tox21_110001=Tox21_112013) and 48.2 µM (Tox21_110001=Tox21_301997).

For the compound `COC(=O)[C@H]1[C@H]2C[C@@H]3c4[nH]c5ccccc5c4CCN3C[C@H]2C[C@@H](OC(=O)c2cc(OC)c(OC)c(OC)c2)[C@@H]1OC` [Deserpidine], the CC50 was 1.94 µM (Tox21_110001=Tox21_112646) and 27.7 µM (Tox21_110001=Tox21_113102).

For the compound `CCCCCCCCCC[N+](C)(C)CCCCCCCCCC` [Didecyldimethylammonium bromide], the CC50 (Tox21_110001=Tox21_112302) was determined as 6.15 µM.

`CCN(CC)C(=S)SSC(=S)N(CC)CC` [Disulfiram]: the CC50 was found to be 19.9 µM (Tox21_110001=Tox21_110280), 0.0747 µM (Tox21_110001=Tox21_300403) and 81.5 µM (Tox21_110001=Tox21_400072).

Regarding `CCN1/C(=C/C=C/C=C/c2sc3ccccc3[n+]2CC)Sc2ccccc21` [Dithiazanine chloride], the CC50 (Tox21_110001=Tox21_113171) worked out at 7.02 µM.

For the compound `CC(=O)O[C@@]12CO[C@@H]1C[C@H](O)[C@@]1(C)C(=O)[C@H](O)C3=C(C)[C@@H](OC(=O)[C@H](O)[C@@H](NC(=O)OC(C)(C)C)c4ccccc4)C[C@@](O)([C@@H](OC(=O)c4ccccc4)[C@H]21)C3(C)C` [Docetaxel], the CC50 is 0.0619 µM (Tox21_110001=Tox21_112781) and 0.364 µM (Tox21_110001=Tox21_113088).

`CCCCC(CC)COC(=O)CC(C(=O)OCC(CC)CCCC)S(=O)(=O)O` (centres unmarked) [Docusate sodium]: the CC50 runs as follows: (Tox21_110001=Tox21_112087) 34.4 µM; (Tox21_110001=Tox21_113469) 18.8 µM; (Tox21_110001=Tox21_201342) 64.9 µM; (Tox21_110001=Tox21_300496) 57.2 µM.

As for `CCCCCCCCCCCCN` [Dodecylamine hydrochloride], the CC50 (Tox21_110001=Tox21_301702) was determined as 19.6 µM.

As for `NCCc1ccc(O)c(O)c1` [Dopamine], under “Tox21_110001=Tox21_110167”, the CC50 was 37 µM.

For the compound `Clc1ccc(COC(Cn2ccnc2)c2ccc(Cl)cc2Cl)cc1` (centres unmarked) [Econazole nitrate], the CC50 reads like this: (Tox21_110001=Tox21_110852) 13.9 µM; (Tox21_110001=Tox21_200771) 23.8 µM; (Tox21_110001=Tox21_303391) 29.6 µM.

For `CC[C@H]1CN2CCc3cc(OC)c(OC)cc3[C@@H]2C[C@@H]1C[C@H]1NCCc2cc(OC)c(OC)cc21` [Emetine], the CC50 (Tox21_110001=Tox21_110901) was 0.0872 µM.

The values above are taken from paper PMC6792352, “Limited Chemical Structural Diversity Found to Modulate Thyroid Hormone Receptor in the Tox21 Chemical Library” (Environmental Health Perspectives, 2019).
